One assay addresses T1, 5-HT3 receptors (Rattus norvegicus, UniProt P35563).
T1 construct: from tissue; host or cells: isolated vagus nerve segments, Sprague-Dawley rat
T1 sequence (P35563 24-483): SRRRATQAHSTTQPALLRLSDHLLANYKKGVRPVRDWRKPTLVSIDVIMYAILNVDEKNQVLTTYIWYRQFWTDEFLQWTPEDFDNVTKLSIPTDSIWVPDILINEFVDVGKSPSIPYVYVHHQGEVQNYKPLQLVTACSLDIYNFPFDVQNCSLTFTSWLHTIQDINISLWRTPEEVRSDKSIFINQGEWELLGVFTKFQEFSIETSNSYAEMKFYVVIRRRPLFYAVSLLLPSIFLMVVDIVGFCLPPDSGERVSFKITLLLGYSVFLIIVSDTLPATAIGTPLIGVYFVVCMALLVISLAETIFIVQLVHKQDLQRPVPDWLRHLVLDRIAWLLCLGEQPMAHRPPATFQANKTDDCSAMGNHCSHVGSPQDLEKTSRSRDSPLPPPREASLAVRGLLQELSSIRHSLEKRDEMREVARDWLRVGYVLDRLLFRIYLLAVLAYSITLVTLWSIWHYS
Briefly: 5-HT3 antagonistic activity in the rat vagus (antagonism of 5-HT depolarization of isolated vagus nerve, Schild analysis). Details: species or system rat (Sprague-Dawley). The note with it: for Kb: antagonism of 5-HT depolarization, rat vagus nerve in vitro, Schild analysis, read-out: pA2 (converted). The protocol:
Compound A, the compound of GB 2236528A and the compounds disclosed in GB 2213816A are tested for 5-HT3 antagonistic activity in the rat vagus by the following procedure:
The method is similar to that described by Ireland and Tyers, Br. J. Pharmac., 1987, 90, 229-238 and is dependent upon the ability of 5-HT to depolarize the vagus nerve in vitro.
Segments of the vagus nerve from Sprague-Dawley rats were placed in a perspex chamber and perfused with Krebs solution. Electrodes, positioned at either end of the nerve segment, were used to record the potential differences which ensued upon the addition of various concentrations of 5-HT to one end of the nerve segment.
Concentration-response curves to 5-HT were obtained in this manner prior to and following equilibration of the nerve segment with Krebs solution containing the test-substance.

Assay [1] in a line: Potential anxiolytic activity: mouse exploratory activity in a two-compartment light/dark box. In kind it is in vivo. Conditions: for minimal effective dose: Mus musculus, sc, read-out: minimum effective dose (MED). How it is done:
Compound A, the compound of GB 2236528A and a representative number of compounds disclosed in GB 2213816A which had high pA2 values in the 5-HT3 -antagonist test procedure given above were tested for potential anxiolytic activity by a test procedure measuring mouse exploratory activity in a two-compartment light/dark box based upon the procedure of B Costall et al, Neuropharmacology, 1987, 26, 195-200 and J. N. Crawley et al, Pharmac. Biochemo Behav., 1980, 13, 167-170. The test involves observing groups of mice placed in an open topped box, one third of which is painted black and illuminated under a dim red light and partitioned from the remainder of the box which is painted white and brightly illuminated. Access between the two sections is via an opening in the centre of the partition. The groups of mice are treated with vehicle or test compound and various behavioural parameters of the animals are measured including the number of exploratory rearings made by the mice in each section and the number of times the mice cross lines marked on the floor of each section. For each treatment group the mean numbers of line crossings and rears in each section of the box are calculated. Differences between drug-treated groups and vehicle-treated controls are compared using Student's unpaired t-test. […] Test compounds are considered to be active if they induce a similar set of changes and, in particular, if they produce a significant (p<0.05) increase in rearing activity in the light section of the box.

Where [2] appears, read: significant (p<0.05) increase in rearing activity in the light section.

For `O=C(NC(=O)c1ccccc1OCC1CC1)N[C@H]1C[C@H]2CC[C@@H](C1)N2` [Compound A, (endo)-N-[[[8-azabicyclo[3.2.1]-octan-3-yl]amino]carbonyl]-2-(cyclopropylmethyloxy)benzamide], the Kb at 5-HT3 receptors is 0.398 nM. For the same compound, on 5-HT3 receptors (rat vagus, comparison in words), the “potency as 5-HT3 antagonist compared with GB 2236528A and GB 2213816A compounds” value is recorded as “surprisingly more potent as 5-HT3 -antagonists”. Further, the minimal effective dose in assay [1] (setting [2]) was 1 µg/kg. Further, in assay [1] (mouse light/dark box, s.c., comparison in words), the “potency as potential anxiolytic compared with GB 2236528A and GB 2213816A compounds” value is recorded as “surprisingly more potent”.

Turning to `CN1[C@@H]2CC[C@H]1C[C@@H](NC(=O)NC(=O)c1ccccc1OCC1CC1)C2` [Compound of GB 2236528A, (endo)-N-[[(8-methyl-8-azabicyclo[3.2.1]octan-3-yl)amino]carbonyl]-2-(cyclopropylmethoxy]benzamide], on 5-HT3 receptors, the Kb was 1.26 nM. Further, in assay [1] (setting [2]), the minimal effective dose was determined as 10 µg/kg.

`O=C(NC(=O)c1ccccc1OCC1CC1)NC1CC2CCC(C1)N2` (stereo not shown) [Example 1]: the “minimum effective dose (MED)” value in assay [1] (s.c., significant (p<0.05) increase in rearing activity in the light section) is reported as 0.1 mg/kg.

For the origin of these results see patent US5436251A, “Treatment of anxiety and gastrointestinal disorders with azabicyclo carbonyl-2-(cyclopropylmethyloxy)benzamide” (John Wyeth & Brother, Limited, priority 1992, dated 1995).
